The values that follow come from patent US9212204B2, “Treatment of rett syndrome using glycyl-L-2-methylprolyl-L-glutamic acid” (priority 2011, dated 2015).

The subject of series [1] is cortical neurons injured with okadaic acid. Description: Okadaic acid injury of cortical cultures, MTT survival. The class given is cell-based, rat. To be noted: 10 μM, 24 hours incubation, MTT-assay. The method, then: One cortical hemisphere from a postnatal day 1 rat was used and collected into 4 ml of DMEM. Trituration was performed using a 5 ml glass pipette and an 18-gauge needle. The cell suspension was sieved through a 100 μm cell strainer and washed in 50 ml DMEM (centrifugation for 5 min at 250 g). The sediment was resuspended in 20 ml DMEM+10% fetal calf serum. The suspension was added into two […] flasks (10 ml per flask) and cultivated at 37° C. in the presence of 10% CO2 followed by a change of the medium twice a week. When cells reached confluence, they were washed three times with PBS, adjusted to Neurobasal/B27 and incubated for another 3 days. This supernatant was frozen for transient storage at −80° C. […]
The cells were triturated once with a glass Pasteur pipette in 1 ml of Neurobasal/B27 medium and subsequently twice by using a 1 ml insulin syringe with a 22 gauge needle. […] Cells were counted and adjusted to 50,000 cells per 60 μl. […]
To cause toxic injury to neurons, we exposed neurons to 1:100 parts of okadaic acid at concentrations of 30 nM or 100 nM and 0.5 mM 3-nitropropionic acid (for cerebellar microexplants only). […] The survival rate was determined by a colorimetric end-point MTT-assay at 595 nm in a multi-well plate reader. For the cerebellar microexplants four windows (field of 0.65 mm^2) with highest cell density were chosen and cells displaying neurite outgrowth were counted.

The nature of series [2]: Pharmacokinetics after intravenous bolus injection. The class given is in vivo, rat. To be noted: 30 mg/kg single i.v. bolus; rat. The method, then: Adult male Wistar rats weighing between 180 and 240 g were used to determine the pharmacokinetics of GPE and […]. To facilitate intravenous bolus injections and blood sampling, all rats were surgically implanted with an indwelling jugular venous cannula under halothane anesthesia three days before the experiment. Groups of six rats were given a single intravenous bolus injection of either 30 mg/kg GPE or 10 mg/kg […] dissolved in 0.1M succinate buffer (pH 6.5). […] The samples were centrifuged at 3000 g for 15 min at 4° C. and the plasma removed and stored at -80° C. until extraction and assay by either radioimmunoassay (“RIA”) or reverse phase HPLC. The RIA and HPLC methods used were conventional. […] The k and half-life (t1/2) were calculated from the slope of the linear regression line in the elimination phase of the semi-logarithmic plot of plasma concentration versus time as: Log. C=-kt/2.3+log C0. Results were expressed as mean±standard error.

Series [3] is described as follows: Degradation of GPE in vivo and in vitro.
In another series the test system is MeCP2 knock-out mice. As to conditions: U.S. Publication No. 2009/0099077; cited from earlier work.
The next series deals with wild type young mice. As to conditions: Tropea et al., 2006; cited from earlier work.

`NCC(=O)N1CCC[C@H]1C(=O)N[C@@H](CCC(=O)O)C(=O)O` [GPE, glycyl-L-prolyl-L-glutamic acid]: the neuroprotection in series [1] is given as 64%. This compound also returned a first order rate constant in series [2] of 0.15 ± 0.014 min⁻¹. Further, in series [3], the degradation result is “rapidly degraded”. Moreover, in the series with MeCP2 knock-out mice, the “effect on life span” value is “prolong life” and the “effect on neuronal function” value is given as “increase neuronal function”. Further, the OD plasticity result with wild type young mice is “reduce”.
